# Experimental data: patent publication US20260043031A1, “COMPOSITIONS AND METHODS FOR INHIBITING ADENYLATE CYCLASE 9 (AC9)” (INSTITUT DE CARDIOLOGIE DE MONTRÉAL, priority 2022, published 2026)
# Columns and labels:
# Assay type in all cases: cell-based, human
# HepG2 cells [1] = assay: Cellular cholesterol efflux toward apo A-I
# Protocol: (§1) HepG2 (hepatocellular carcinoma) cells were growth in Eagle's minimum essential medium (EMEM). The medium was supplemented with 10% FBS, 100 units/ml penicillin, and 100 μg/ml streptomycin. Cells were cultured in 5% CO2 at 37° C. and were harvested once a week with trypsin-EDTA. For experiments, cells were trypsinized, seeded, and cultured at least for 3 days prior to the assays.
# (§2) HepG2 cells were transfected with ADCY9, SREBP2, LDLr or scramble siRNA in the presence of Lipofectamine RNAiMAX in Opti-MEM for 72 h unless otherwise stated.
# Cells were labeled in EMEM containing 2 μCi/ml [1,2-^3H]cholesterol plus 1% FBS for 24 h at 37° C. Then, cells were equilibrated with EMEM containing 0.2% BSA for 18 h at 37° C. with or without H89 or GSK-2033. An efflux assay was performed in the absence or presence of 10 μg/ml of apo A-I. At the end of the incubation, the medium was harvested and cells were solubilized. Medium and cells were counted for radioactivity in a […]. The percentage of efflux was calculated by subtracting the radioactive counts in the medium in the absence of cholesterol acceptors from the radioactive counts in the presence of acceptor and then dividing by the sum of the radioactive counts in the medium plus the cell fraction.
# LDLr = assay: Western blot of LDLr protein in HepG2 cells; conditions: for LDLr protein expression in human HepG2 cells (% of siScramble): HepG2 transfected with siRNA, Western blot, actin loading control, n=8
# Protocol: as §1, §2
# (§3) For Western blotting, cells were washed with cold PBS and then scraped and lysed in ice-cold lysis buffer (50 mM Tris, pH 7.5, 150 mM NaCl, 1% Triton X-100, 0.1% SDS, 0.5% sodium deoxycholate, 1 mM PMSF, and protease inhibitor cocktail). Lysate was microcentrifugated for 20 min at 4° C. and supernatant was assessed for cell proteins. Proteins ([…]) were separated by sodium dodecyl sulfate-polyacrylamide gel electrophoresis (SDS-PAGE) followed by Western blotting to PVDF membrane.
# Protein expression is represented as a percentage of the control, siScramble. n=8. Paired t-test: *=p≤0.05; **=p≤0.01; and ***=p≤0.001, relative to siScramble.
# ABCA1 = assay: Western blot of ABCA1 protein in HepG2 cells; conditions: HepG2, siAC9 plus 2 μM H89, 24 h
# Protocol: as §1, §2, §3
# HepG2 cells [2] = assay: 3H-CE-LDL cell association assay; conditions: HepG2, siAC9 plus 2 μM H89, 24 h
# Protocol: as §1, §2
# AC9 = assay: Western blot of AC9 protein after siRNA transfection of HepG2 cells; conditions: HepG2 transfected with siRNA, actin loading control, n=8
# Protocol: as §1, §2, §3
# Results were obtained by Western blotting and actin was used as a loading control. Protein expression is represented as a percentage of the control, siScramble. n=8. Paired t-test: *=p≤0.05; **=p≤0.01; and ***=p≤0.001, relative to siScramble.
# [3] = HepG2, siAC9 plus 2 μM H89, 24 h
Molecule,LDLr protein expression in human HepG2 cells (% of siScramble) (LDLr),AC9 protein expression in human HepG2 cells (% of siScramble) (AC9) [% ***],further results
Cc1cc(C)c(S(=O)(=O)N(Cc2ccc(-c3cccc(S(C)(=O)=O)c3)cc2)Cc2ccc(C(F)(F)F)o2)c(C)c1 [GSK-2033],–,–,"ABCA1-mediated cholesterol efflux, effect on siAC9-mediated increase (HepG2 cells [1]; HepG2, siAC9 plus 5 μM GSK-2033, 24 h): significantly reduce"
O=S(=O)(NCCNC/C=C/c1ccc(Br)cc1)c1cccc2cnccc12 [H89],–,–,"LDLr protein expression, effect on siAC9-mediated increase (LDLr; [3]): reversed; cholesterol efflux in siAC9-treated cells (HepG2 cells [1]; [3]): not; ABCA1 protein expression, effect on siAC9-mediated increase (ABCA1): reversed; 3H-CE-LDL association in siAC9-treated cells (HepG2 cells [2]): reduction"
"CC(C)c1c(C(=O)Nc2ccccc2)c(-c2ccccc2)c(-c2ccc(F)cc2)n1CC[C@@H](O)C[C@@H](O)CC(=O)O [atorvastatin, reference compound]",–,–,"LDLr protein expression, combined treatment (LDLr; HepG2, 300 μM exogenous cAMP plus 5 μM atorvastatin): increased"
"ADCY9-1: siRNA, sense SEQ ID NO: 3 CGAAAUGGAAGAUGGGAAAUU, antisense SEQ ID NO: 4 UUUCCCAUCUUCCAUUUCGUU; targets ADCY9 mRNA Exon 2 (listed as RNA, chemistry not fully specified)",131% **,24,–
"ADCY9-2: siRNA, sense SEQ ID NO: 5 CGAAACAGGAAUAGAAGAAUU, antisense SEQ ID NO: 6 UUCUUCUAUUCCUGUUUCGUU; targets ADCY9 mRNA Exon 10 (listed as RNA, chemistry not fully specified)",122% **,16,–
"ADCY9-3: siRNA, sense SEQ ID NO: 7 AGGAAGAGGUCAUAAAGAAUU, antisense SEQ ID NO: 8 UUCUUUAUGACCUCUUCCUUU; targets ADCY9 mRNA Exon 5-6 (listed as RNA, chemistry not fully specified)",126% *,17,–
"ADCY9-4: siRNA, sense SEQ ID NO: 9 GCACCAAGAUCCAGAGCAUUU, antisense SEQ ID NO: 10 AUGCUCUGGAUCUUGGUGCUU; targets ADCY9 mRNA Exon 10 (listed as RNA, chemistry not fully specified)",150% **,15,–
"ADCY9-ID1039: siRNA, sense SEQ ID NO: 1 CCUGAUGAAAGAUUACUUUTT, antisense SEQ ID NO: 2 AAAGUAAUCUUUCAUCAGGCT; targets ADCY9 mRNA Exon 5 (chemistry not fully specified)",123% *,15,–
